How the values were obtained:
Assay type in all cases: functional
Tetranychus urticae [1] = experiment: Acaricidal activity against Tetranychus urticae (two-spotted spider mite) assessed as mite mortality at 500 ppm relative to untreated control
Tetranychus urticae [2] = experiment: Acaricidal activity against Tetranychus urticae (two-spotted spider mite) assessed as mite mortality at 200 ppm relative to untreated control
Tetranychus urticae [3] = experiment: Acaricidal activity against Tetranychus urticae (two-spotted spider mite) assessed as mite mortality at 12.5 ppm relative to untreated control
Tetranychus urticae [4] = experiment: Acaricidal activity against Tetranychus urticae (two-spotted spider mite) assessed as mite mortality at 50 ppm relative to untreated control
Tetranychus urticae [5] = experiment: Acaricidal activity against Tetranychus urticae (two-spotted spider mite) assessed as mite mortality at 3.13 ppm relative to untreated control

Compound	mortality at 500 ppm (Tetranychus urticae [1])	mortality at 200 ppm (Tetranychus urticae [2])	mortality at 12.5 ppm (Tetranychus urticae [3])	mortality at 50 ppm (Tetranychus urticae [4])	mortality at 3.13 ppm (Tetranychus urticae [5])
CC(C)(C)CC(=O)Nc1nnc(C(F)(F)F)s1	0%	–	–	–	–
CC(C)CC(Br)C(=O)Nc1nnc(C(F)(F)F)s1 (stereo not given)	0%	–	–	–	–
CCC(C)C(Br)C(=O)Nc1nnc(C(F)(F)F)s1 (stereo not given)	100%	100%	30%	80%	–
CC(C)(C)C(Br)C(=O)Nc1nnc(C(F)(F)F)s1 (stereo not given)	100%	100%	30%	100%	–
CCCCCC(Br)C(=O)Nc1nnc(C(F)(F)F)s1 (stereo not given)	80%	80%	0%	30%	–
O=C(Nc1nnc(C(F)(F)F)s1)C(Br)C1CCCC1 (stereo not given)	30%	0%	–	–	–
CC(CC(Br)C(=O)Nc1nnc(C(F)(F)F)s1)C1CCCCC1 (stereo not given)	30%	0%	–	–	–
CC(C)(C)C(Br)(Br)C(=O)Nc1nnc(C(F)(F)F)s1	100%	100%	30%	100%	–
CC(C)(C)C(Cl)C(=O)Nc1nnc(C(F)(F)F)s1 (stereo not given)	100%	100%	30%	100%	–
CC(C)(C)C(Br)C(=O)Nc1nnc(C(F)(F)C(F)(F)F)s1 (stereo not given)	100%	80%	30%	80%	–
CC(C)(C)C(Br)C(=O)Nc1nnc(C(F)(F)C(F)(F)C(F)(F)F)s1 (stereo not given)	80%	30%	30%	30%	–
CC(C)(C)C(Br)C(=O)Nc1nnc(C(F)(F)C(F)(F)C(F)(F)C(F)(F)F)s1 (stereo not given)	0%	–	–	–	–
CC(C)(C)C(Br)C(=O)Nc1nnc(C(F)(F)C(F)(F)C(F)(F)C(F)(F)C(F)(F)F)s1 (stereo not given)	0%	–	–	–	–
CC(C)(C)C(Br)C(=O)Nc1nncs1 (stereo not given)	0%	–	–	–	–
Cc1nnc(NC(=O)C(Br)C(C)(C)C)s1 (stereo not given)	0%	–	–	–	–
CCc1nnc(NC(=O)C(Br)C(C)(C)C)s1 (stereo not given)	0%	–	–	–	–
CC(C)(C)C(Br)(Br)C(=O)Nc1nnc(C(F)(F)C(F)(F)F)s1	100%	100%	80%	100%	30%
CC(C)(C)C(Br)(Br)C(=O)Nc1nnc(C(F)(F)C(F)(F)C(F)(F)F)s1	100%	100%	0%	80%	–
CC(C)(C)C(Br)(Br)C(=O)Nc1nnc(C(F)(F)C(F)(F)C(F)(F)C(F)(F)F)s1	100%	100%	30%	100%	–
O=C(CBr)Nc1nnc(C(F)(F)F)s1	0%	–	–	–	–
CC(Br)C(=O)Nc1nnc(C(F)(F)F)s1 (stereo not given)	0%	–	–	–	–
CCC(Br)C(=O)Nc1nnc(C(F)(F)F)s1 (stereo not given)	0%	–	–	–	–
CCCC(Br)C(=O)Nc1nnc(C(F)(F)F)s1 (stereo not given)	30%	0%	–	–	–
CC(C)C(Br)C(=O)Nc1nnc(C(F)(F)F)s1 (stereo not given)	100%	30%	–	–	–
CCCCC(Br)C(=O)Nc1nnc(C(F)(F)F)s1 (stereo not given)	0%	–	–	–	–
